Data: patent US12558428B2, “Heterobifunctional compounds and their use in treating disease” (Halda Therapeutics OpCo, Inc., priority 2024, dated 2026)
Read-outs that look alike come from different tables or passages of the source.

Tests used:
Format in all cases: cell-based
[1] = test system: T-Rex 293 cells having increased expression of estrogen receptor alpha protein; assay: Cellular growth inhibition assay, T-Rex 293 cells, (+) doxycycline; details: 72 hours
Method in brief: (§1)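 ERα overexpression was switched on by 3 ng/mL doxycycline in a stably transfected T-Rex 293 clone, while uninduced cells served as the comparison line. Proliferation over 72 h of compound treatment was assessed by ATP luminescence, and GI50 values came from four-parameter curves.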

[2] = test system: MCF7 cells (ATCC #HTB-22); assay: Cellular growth inhibition assay, MCF7 cells purchased from ATCC; details: Table 8-A, MCF7 cells purchased from ATCC, six days, CellTiter-Glo, read-out: GI50
Method in brief: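 MCF7 cells in RPMI 1640 with 10% FBS and 0.2 U/ml insulin, seeded at 1,500 cells/well (ATCC) or 225 cells/well (ECACC). Compounds added 24 h later, then 6 days at 37° C. Viability by CellTiter-Glo 2.0 luminescence. GI50 from four-parameter fit.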

[3] = test system: T-Rex 293 cells lacking increased expression of estrogen receptor alpha protein; assay: Cellular growth inhibition assay, T-Rex 293 cells, (−) doxycycline; details: 72 hours
Method in brief: as §1

[4] = T-REx-293, 72 h, Table 7-A, T-Rex 293 cells with doxycycline (increased ERα expression), CellTiter-Glo, read-out: (+) Dox GI50
[5] = T-REx-293, 72 h, Table 7-A, T-Rex 293 cells without doxycycline (lacking increased ERα expression), CellTiter-Glo, read-out: (−) Dox GI50
[6] = T-REx-293, 72 h, T-Rex 293 cells with doxycycline-induced ERα expression, CellTiter-Glo 2.0, read-out: (+) Dox TRex ERa (GI50)
[7] = T-REx-293, 72 h, T-Rex 293 cells without doxycycline, CellTiter-Glo 2.0, read-out: (−) Dox TRex ERa (GI50)
[8] = Table 7-A, T-Rex 293 cells with doxycycline (increased ERα expression), CellTiter-Glo, read-out: (+) Dox GI50
[9] = Table 7-A, T-Rex 293 cells without doxycycline (lacking increased ERα expression), CellTiter-Glo, read-out: (−) Dox GI50

Row | SMILES | GI50 ([2]; Homo sapiens, MCF7, 144 h) [nM] | GI50 [2] [nM] | GI50 [1, 4] [nM] | GI50 [3, 5] [nM] | GI50 [1, 6] [nM] | GI50 [3, 7] [nM] | GI50 [1, 8] [nM] | GI50 [3, 9] [nM]
1 | Cc1sc2c(c1C)C(c1ccc(N3CCC(O)(CN4CCN(c5ccc([C@@H]6c7ccc(O)cc7CC[C@@H]6c6ccc(F)cc6)c(F)c5)CC4)CC3)cc1)=N[C@@H](C)c1nnc(C)n1-2 [III-248] | < 50 |  | < 50 | 500 to 2500 |  |  |  | 
2 | Cc1sc2c(c1C)C(c1ccc(C34COC(CN5CCN(c6ccc([C@@H]7c8ccc(O)cc8CC[C@@H]7c7ccccc7)cc6)CC5)(C3)C4)cc1)=N[C@@H](C)c1nnc(C)n1-2 [III-82] | 50 to 500 |  | 50 to 500 | 500 to 2500 |  |  |  | 
3 | CC1=C(c2c(F)cc(F)cc2F)C(c2ccc(N3CCC4(CCCN(CCOc5ccc(C6=N[C@@H](C)c7nnc(C)n7-c7sc(C)c(C)c76)cc5)C4)C3)cc2)Oc2ccc(O)cc21 (stereo partly drawn) [V-17] | 50 to 500 |  | 50 to 500 | 50 to 500 |  |  |  | 
4 | Cc1sc2c(c1C)C(c1ccc(C3CN(C[C@H]4C[C@H](CN5CC(c6ccc([C@@H]7c8ccc(O)cc8CC[C@@H]7c7ccccc7)cc6)C5)C4)C3)cc1)=N[C@@H](C)c1nnc(C)n1-2 [III-261] | 50 to 500 |  | < 50 | 500 to 2500 |  |  |  | 
5 | Cc1sc2c(c1C)C(c1ccc(C#CC3CC4(CCN(CCOc5ccc(C(=O)c6c(-c7ccc(O)cc7)sc7cc(O)ccc67)cc5)CC4)C3)cc1)=N[C@@H](C)c1nnc(C)n1-2 [I-29, (S)-(6-hydroxy-2-(4-hydroxyphenyl)benzo[b]thiophen-3-yl)(4-(2-(2-((4-(2,3,6,9-tetramethyl-6H-thieno[3,2-f][1,2,4]triazolo[4,3-a][1,4]diazepin-4-yl)phenyl)ethynyl)-7-azaspiro[3.5]nonan-7-yl)ethoxy)phenyl)methanone] | < 50 |  |  |  | < 50 | < 50 |  | 
6 | Cc1sc2c(c1C)C(c1ccc(N3CCC(O)(CN4CCN(c5ccc(C6=C(c7ccccc7Cl)CCCc7cc(O)ccc76)cc5)CC4)CC3)cc1)=N[C@@H](C)c1nnc(C)n1-2 [IV-20] | < 50 |  | < 50 | 500 to 2500 |  |  |  | 
7 | CCN(CCOCCOCCOCCOCCOCCOCCNC(=O)C[C@@H]1N=C(c2ccc(Cl)cc2)c2c(sc(C)c2C)-n2c(C)nnc21)CCOc1ccc(C(=O)c2c(-c3ccc(O)cc3)sc3cc(O)ccc23)cc1 [I-5, (S)-2-(4-(4-chlorophenyl)-2,3,9-trimethyl-6H-thieno[3,2-f][1,2,4]triazolo[4,3-a][1,4]diazepin-6-yl)-N-(3-ethyl-1-(4-(6-hydroxy-2-(4-hydroxyphenyl)benzo[b]thiophene-3-carbonyl)phenoxy)-6,9,12,15,18,21-hexaoxa-3-azatricosan-23-yl) acetamide] | 50 to 500 |  |  |  | < 50 | 500 to 2500 |  | 
8 | Cc1sc2c(c1C)C(c1ccc(N3CC(CN4CCN(CC5CN(c6ccc(C7=C(c8ccc(F)cc8F)CCCc8cc(C(=O)O)ccc87)cc6)C5)CC4)C3)cc1)=N[C@@H](C)c1nnc(C)n1-2 [IV-25] | < 50 |  | < 50 | 50 to 500 |  |  |  | 
9 | Cc1sc2c(c1C)C(c1ccc(N3CCC(O)(CN4CCN(c5cc(F)c([C@@H]6c7ccc(O)cc7CC[C@@H]6c6ccccc6)cc5F)CC4)CC3)cc1)=N[C@@H](C)c1nnc(C)n1-2 [III-246] | < 50 |  | < 50 | 500 to 2500 |  |  |  | 
10 | Cc1sc2c(c1C)C(c1ccc(N3CCC(O)(CN4CCN(c5ccc([C@@H]6c7ccc(O)cc7CC[C@@H]6c6ccccc6)nn5)CC4)CC3)cc1)=N[C@H](Cc1ncco1)c1nnc(C)n1-2 [III-223] | 500 to 2500 |  | 500 to 2500 | 500 to 2500 |  |  |  | 
11 | Cc1sc2c(c1C)C(c1ccc(N3CCN(CC4CN(c5ccc([C@@H]6c7ccc(O)cc7CC[C@@H]6c6ccccc6)cc5)C4)CC3)cc1)=N[C@@H](C)c1nnc(C)n1-2 [III-67] | < 50 |  | < 50 | < 50 |  |  |  | 
12 | COc1cc(N2CCN(CC3(O)CCN(c4ccc(C5=N[C@@H](C)c6nnc(C)n6-c6sc(C)c(C)c65)cc4)CC3)CC2)ccc1[C@H]1c2ccc(O)cc2CC[C@H]1c1cccc(F)c1 [III-309] | 50 to 500 |  | 50 to 500 | 50 to 500 |  |  |  | 
13 | COc1ccc(-c2sc3cc(OC)ccc3c2C(=O)c2ccc(OCCN3CCC4(CC3)CC(Oc3ccc(C5=N[C@@H](Cc6ncco6)c6nnc(C)n6-c6sc(C)c(C)c65)cc3)C4)cc2)cc1 [V-2] |  | 50 to 500 |  |  |  |  | 50 to 500 | 500 to 2500
14 | CC1=C(c2c(F)cc(F)cc2F)[C@H](c2ccc(C3CCN(CC4(O)CCN(c5ccc(C6=N[C@@H](C)c7nnc(C)n7-c7sc(C)c(C)c76)cc5)CC4)CC3)cc2)Oc2ccc(O)cc21 [V-31] | 50 to 500 |  | < 50 | 50 to 500 |  |  |  | 
15 | Cc1sc2c(c1C)C(c1ccc(N3CC4(CCC(CN5CCC(c6ccc(C7=C(c8ccccc8Cl)CCCc8cc(C(=O)O)ccc87)cc6)CC5)CC4)C3)cc1)=N[C@@H](C)c1nnc(C)n1-2 [IV-56] | < 50 |  | < 50 | 50 to 500 |  |  |  | 
16 | Cc1sc2c(c1C)C(c1ccc(N3CCC(O)(CN4CCN(c5ccc([C@@H]6c7ccc(C(=O)O)cc7CC[C@@H]6c6ccc(F)cc6F)cc5)CC4)CC3)cc1)=N[C@@H](C)c1nnc(C)n1-2 [III-204] | 50 to 500 |  | < 50 | 500 to 2500 |  |  |  | 
17 | Cc1sc2c(c1C)C(c1ccc(N3CC(CN4CCN(C(=O)C5CN(c6ccc([C@@H]7c8ccc(O)cc8CC[C@@H]7c7ccccc7)cc6)C5)CC4)C3)cc1)=N[C@@H](C)c1nnc(C)n1-2 [III-160] | < 50 |  | < 50 | 50 to 500 |  |  |  | 
18 | Cc1sc2c(c1C)C(c1ccc(OCCOCCCN3CC[C@H](Oc4ccc(C5=C(c6ccc(Cl)cc6Cl)CCCc6cc(O)ccc65)cc4)C3)cc1)=N[C@@H](C)c1nnc(C)n1-2 [I-36, 8-(2,4-dichlorophenyl)-9-(4-(((S)-1-(3-(2-(4-((S)-2,3,6,9-tetramethyl-6H-thieno[3,2-f][1,2,4]triazolo[4,3-a][1,4]diazepin-4-yl)phenoxy)ethoxy)propyl)pyrrolidin-3-yl)oxy)phenyl)-6,7-dihydro-5H-benzo[7]annulen-3-ol] | 500 to 2500 |  |  |  | 500 to 2500 | 500 to 2500 |  | 

Second part, led by results:

Row | GI50 ([2]; Homo sapiens, MCF7, 144 h) [nM] | GI50 [2] [nM] | SMILES | GI50 [1, 4] [nM] | GI50 [3, 5] [nM] | GI50 [1, 6] [nM] | GI50 [3, 7] [nM] | GI50 [1, 8] [nM] | GI50 [3, 9] [nM]
19 | 50 to 500 |  | Cc1sc2c(c1C)C(c1ccc(N[C@H]3CC[C@H](CNCCOc4ccc([C@@H]5c6ccc(O)cc6CC[C@@H]5c5ccccc5)cc4)CC3)cc1)=NC(Cc1ncco1)c1nnc(C)n1-2 (stereo partly drawn) [III-43] | < 50 | 50 to 500 |  |  |  | 
20 | < 50 |  | Cc1sc2c(c1C)C(c1ccc(OCC3CN(CC4CCN(c5ccc([C@@H]6c7ccc(O)cc7CC[C@@H]6c6ccccc6)cc5)CC4)C3)cc1)=N[C@@H](C)c1nnc(C)n1-2 [III-70] | < 50 | 50 to 500 |  |  |  | 
21 | 500 to 2500 |  | Cc1sc2c(c1C)C(c1ccc(N3CCC(O)(CN4CCN(c5ccc([C@@H]6c7ccc(O)cc7CC[C@@H]6c6ccc(F)cc6)cc5)CC4)CC3)cc1)=N[C@H](Cc1ncco1)c1nnc(C)n1-2 [III-208] | > 2500 | > 2500 |  |  |  | 
22 | < 50 |  | Cc1sc2c(c1C)C(c1ccc(NCCN3CCN(CCOc4ccc([C@H]5c6ccc(O)cc6CC[C@H]5c5ccccc5)cc4)CC3)cc1)=N[C@@H](Cc1ncco1)c1nnc(C)n1-2 [III-104] | < 50 | 50 to 500 |  |  |  | 
23 | < 50 |  | Cc1sc2c(c1C)C(c1ccc(N3C[C@H]4C[C@@H]3CN4CCOc3ccc([C@@H]4c5ccc(O)cc5CC[C@@H]4c4ccccc4)cc3)cc1)=NC(Cc1ncco1)c1nnc(C)n1-2 (stereo partly drawn) [III-40] | 50 to 500 | 50 to 500 |  |  |  | 
24 | < 50 |  | Cc1sc2c(c1C)C(c1ccc(N3CCC4(CCN(CC5CCN(c6ccc([C@@H]7c8ccc(O)cc8CC[C@@H]7c7ccccc7)cc6)CC5)CC4)C3)cc1)=N[C@@H](Cc1ncco1)c1nnc(C)n1-2 [III-202] | < 50 | 50 to 500 |  |  |  | 
25 |  | 500 to 2500 | Cc1sc2c(c1C)C(c1ccc(N3CCC(CN4CCN(c5ccc([C@H]6c7ccc(O)cc7CC[C@H]6c6ccccc6)cc5)CC4)CC3)cc1)=N[C@H](Cc1ncco1)c1nnc(C)n1-2 [III-72] |  |  |  |  | 500 to 2500 | 500 to 2500
26 | 50 to 500 |  | Cc1sc2c(c1C)C(c1ccc(N3CCC(CC4(O)CCN(c5ccc([C@@H]6c7ccc(O)cc7CC[C@@H]6c6ccccc6)cc5)CC4)CC3)cc1)=N[C@H](Cc1ncco1)c1nnc(C)n1-2 [III-163] | > 2500 | > 2500 |  |  |  | 
27 | > 2500 |  | Cc1sc2c(c1C)C(c1ccc(CC3CC4(CCN(c5ccc([C@@H]6c7ccc(O)cc7CC[C@@H]6c6ccccc6)cc5)CC4)C3)cc1)=N[C@H](Cc1ncco1)c1nnc(C)n1-2 [III-4, (5R,6S)-6-phenyl-5-(4-(2-(4-((R)-2,3,9-trimethyl-6-(oxazol-2-ylmethyl)-6H-thieno[3,2-f][1,2,4]triazolo[4,3-a][1,4]diazepin-4-yl)benzyl)-7-azaspiro[3.5]nonan-7-yl)phenyl)-5,6,7,8-tetrahydronaphthalen-2-ol] | 500 to 2500 | > 2500 |  |  |  | 
28 | < 50 |  | Cc1sc2c(c1C)C(c1ccc(N[C@H]3CCN(CCOc4ccc([C@@H]5c6ccc(O)cc6CC[C@@H]5c5ccccc5)cc4)C[C@@H]3F)cc1)=NC(Cc1ncco1)c1nnc(C)n1-2 (stereo partly drawn) [III-46] | < 50 | < 50 |  |  |  | 
